14 compounds from patent US20250313548A1 (Actio Biosciences, Inc., priority 2023, published 2025) can be followed below.

SMILES strings stand for the structures. pIC50: −log10 of the molar value. Bounds are passed on as bounds.

In general, pIC50 refers to the negative decadic logarithm of the IC50, by convention in mol/L. Read a low pIC50 as a large IC50.

Chain of human, KCNT1 (Q5JUK3 whole entry): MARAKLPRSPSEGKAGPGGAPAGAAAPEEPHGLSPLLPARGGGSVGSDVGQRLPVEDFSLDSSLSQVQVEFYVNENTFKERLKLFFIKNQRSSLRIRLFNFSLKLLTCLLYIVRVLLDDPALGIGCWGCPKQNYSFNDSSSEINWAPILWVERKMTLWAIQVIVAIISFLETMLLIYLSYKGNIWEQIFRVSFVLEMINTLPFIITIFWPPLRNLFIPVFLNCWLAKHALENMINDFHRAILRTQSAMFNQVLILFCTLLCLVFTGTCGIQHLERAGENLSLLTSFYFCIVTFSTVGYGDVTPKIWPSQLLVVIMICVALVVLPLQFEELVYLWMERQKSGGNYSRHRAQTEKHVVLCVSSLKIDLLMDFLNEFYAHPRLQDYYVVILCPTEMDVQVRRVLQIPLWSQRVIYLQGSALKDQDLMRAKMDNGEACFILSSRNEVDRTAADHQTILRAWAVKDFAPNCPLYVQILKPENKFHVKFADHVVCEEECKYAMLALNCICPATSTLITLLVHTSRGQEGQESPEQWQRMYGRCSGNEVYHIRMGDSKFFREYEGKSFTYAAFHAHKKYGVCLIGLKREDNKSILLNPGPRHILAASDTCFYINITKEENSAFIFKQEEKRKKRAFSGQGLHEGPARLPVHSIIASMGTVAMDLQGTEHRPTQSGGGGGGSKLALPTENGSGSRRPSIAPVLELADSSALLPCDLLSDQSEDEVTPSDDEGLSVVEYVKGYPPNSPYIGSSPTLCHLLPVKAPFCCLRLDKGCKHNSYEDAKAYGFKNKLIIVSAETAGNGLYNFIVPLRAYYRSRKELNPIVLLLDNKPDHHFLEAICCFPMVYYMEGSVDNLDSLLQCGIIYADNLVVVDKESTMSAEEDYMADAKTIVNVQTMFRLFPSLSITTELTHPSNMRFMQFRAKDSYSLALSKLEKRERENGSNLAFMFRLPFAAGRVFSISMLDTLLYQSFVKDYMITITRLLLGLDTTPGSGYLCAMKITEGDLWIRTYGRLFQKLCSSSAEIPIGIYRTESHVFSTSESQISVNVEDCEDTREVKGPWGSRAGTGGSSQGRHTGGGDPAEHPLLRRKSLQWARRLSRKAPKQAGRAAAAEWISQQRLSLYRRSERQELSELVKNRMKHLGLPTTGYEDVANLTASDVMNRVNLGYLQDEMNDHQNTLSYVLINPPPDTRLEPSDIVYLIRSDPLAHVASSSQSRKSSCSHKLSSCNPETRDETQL

In the experiment the target is human, KCNT1 (Homo sapiens (Human), UniProt Q5JUK3). As to the kind of experiment: FLIPR Tl/K Flux Assay. The format is cell-based. The note with it: HEK293 cells stably expressing human KCNT1; Tl+ flux stimulated with EC80 of agonist Loxapine. The essentials:
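Inhibition values come from a Hill-equation fit of % inhibition versus log concentration, using normalized fluorescence (Fmax/Fmin) over a 160 s read. The read followed stimulation with Tl+ plus EC80 agonist loxapine after 30 min compound pre-incubation at 25 °C. Cells were KCNT1-expressing HEK293, dye-loaded 1 h in pH 7.4 HEPES/HBSS with 5 mM probenecid.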
The compound `Cn1nc(C(F)(F)F)nc1C(=O)N[C@H]1CCCc2nn(-c3ccnc(C(F)(F)F)c3)cc21` [Compound I-50a] gave a pIC50 of over 6.60.
The same measure for `O=C(NC1CCCc2nn(-c3ccnc(C(F)(F)F)c3)cc21)c1ccc(C(F)(F)F)nc1` (racemic) [Compound I-19, (rac)-6-(Trifluoromethyl)-N-(2-(2-(trifluoromethyl)pyridin-4-yl)-4,5,6,7-tetrahydro-2H-indazol-4-yl)nicotinamide]: 6.30 to 6.60; for `O=C(N[C@H]1CCCn2nc(-c3ccnc(C(F)(F)F)c3)cc21)c1cc2n(n1)CCCO2` [Compound I-413a]: under 6.00.
`Cn1nc(C(F)(F)F)cc1C(=O)NC1CCc2nn(-c3ccnc(C(F)(F)F)c3)cc21` (racemic) [Compound I-1, (rac)-1-Methyl-3-(trifluoromethyl)-N-(2-(2-(trifluoromethyl)pyridin-4-yl)-2,4,5,6-tetrahydrocyclopenta[c]pyrazol-4-yl)-1H-pyrazole-5-carboxamide]: the negative-log IC50 (pIC50) is over 6.60.
The compound `O=C(N[C@H]1CCCn2nc(-c3ccnc(C(F)(F)F)c3)cc21)c1cnc(C(F)(F)F)cn1` [Compound I-582a, (S)-5-(Trifluoromethyl)-N-(2-(2-(trifluoromethyl)pyridin-4-yl)-4,5,6,7-tetrahydropyrazolo[1,5-a]pyridin-4-yl)pyrazine-2-carboxamide] had a pIC50 of over 6.60.
In the case of `N#Cc1cc(F)cc(C(=O)N[C@H]2CCCn3nc(-c4ccnc(C5CC5)c4)cc32)c1` [Compound I-262a] it was over 6.60.
Turning to `CC(F)(F)c1cc(-c2nc3c(o2)CCC[C@@H]3NC(=O)c2cncc(F)c2)ccn1` [Compound I-544a, (S)—N-(2-(2-(1,1-difluoroethyl)pyridin-4-yl)-4,5,6,7-tetrahydrobenzo[d]oxazol-4-yl)-5-fluoronicotinamide], the pIC50 is over 6.60.
Compound `O=C(N[C@H]1CCn2nc(-c3ccnc(C4CC4)c3)cc21)c1ccc(C(F)(F)F)nc1` [Compound I-66a] showed a pIC50 of over 6.60.
In the case of `Cn1nc(C(F)(F)F)cc1C(=O)N[C@H]1CCc2nn(-c3ccnc(C(C)(C)O)c3)cc21` [Compound I-76a] it was under 6.00; in that of `COc1cc(-c2cc3n(n2)CCCC[C@@H]3NC(=O)c2cc(F)cc(C#N)c2)c(F)cn1` [Compound I-183a, (S)-3-Cyano-5-fluoro-N-(2-(5-fluoro-2-methoxypyridin-4-yl)-5,6,7,8-tetrahydro-4H-pyrazolo[1,5-a]azepin-4-yl)benzamide], over 6.60; in that of `O=C(N[C@H]1CCn2nc(-c3ccnc(C(F)(F)F)c3)cc21)c1ccnc(OC(F)F)c1` [Compound I-226a, (S)-2-(Difluoromethoxy)-N-(2-(2-(trifluoromethyl)pyridin-4-yl)-5,6-dihydro-4H-pyrrolo[1,2-b]pyrazol-4-yl)isonicotinamide], over 6.60.
The same measure for `Cn1nc(C(F)(F)F)cc1CC(=O)N[C@H]1CCCc2nn(-c3ccnc(C(F)(F)F)c3)cc21` [Compound I-53a, (S)-2-(1-Methyl-3-(trifluoromethyl)-1H-pyrazol-5-yl)-N-(2-(2-(trifluoromethyl)pyridin-4-yl)-4,5,6,7-tetrahydro-2H-indazol-4-yl)acetamide]: under 6.00.
The same measure for `O=C(N[C@H]1CCn2nc(-c3ccnc(C(F)(F)F)c3)cc21)c1cc2cccnn2c1` [Compound I-291a, (S)-N-(2-(2-(Trifluoromethyl)pyridin-4-yl)-5,6-dihydro-4H-pyrrolo[1,2-b]pyrazol-4-yl)pyrrolo[1,2-b]pyridazine-6-carboxamide]: over 6.60; for `COc1cc(-c2cc3n(n2)CCC[C@@H]3NC(=O)c2cc(C#N)cc(C(F)(F)F)c2)ccn1` [Compound I-284a, (S)-3-Cyano-N-(2-(2-methoxypyridin-4-yl)-4,5,6,7-tetrahydropyrazolo[1,5-a]pyridin-4-yl)-5-(trifluoromethyl)benzamide]: over 6.60.
